Laboratory results published in patent publication US20130331415A1, “COMPOSITIONS COMPRISING WNT INHIBITORS FOR TREATING CANCER” (priority 2010, published 2013).

What was measured:
MPC11 myeloma cells = type: in vivo; settings: for animals in which solid tumor nodules formed: gavage 450 μg per animal daily; for overall survival compared to control group: oral 450 μg/day, 750 μg lenalidomide/day in combination
Description: Mice were treated orally with 450 μg/day EA and 750 μg lenalidomide/day, respectively. Overall survival and tumor growth were measured. Tumor volume was calculated as follows: volume=length×width^2×0.52.
Mice were treated orally with 450 μg/day CIC and 750 μg lenalidomide/day, respectively. Overall survival and tumor growth were measured. Tumor volume was calculated as follows: volume=length×width^2×0.52.
Mice were treated orally with 450 μg/day PO. Overall survival and tumor growth were measured. Tumor volume was calculated as follows: volume=length×width^2×0.52.

PBL = assay: Cell viability by DiOC6 staining, flow cytometry: PBL of healthy individuals; type: cell-based, human
Description: (§1) After addition of 5 μl PI-solution (100 μg/ml) the cells were analyzed by FACS.
(§2) Experiments were performed as reported recently.

OPM-2 myeloma cells = assay: Cell viability by DiOC6 staining, flow cytometry: OPM-2; type: cell-based, human; settings: for viability of OPM-2 cells, single drug or combination: three days, EA or CIC 30 μM, thalidomide 40 μM, lenalidomide 12 μM
Description: (§3) The lymphoma cell lines LAM-53, SU-DHL-4, Daudi and Raji, as well as the myeloma cell lines OPM-2, RPMI-8226 and U-266 (all obtained from DSMZ, Collection of Microorganisms and Cell Culture, Braunschweig, Germany) were cultured in RPMI-1640 Medium consisting of 10% heat-inactivated fetal calf serum (FCS, Invitrogen, Karlsruhe, Germany), 2.5% 1 M HEPES, and 1× penicillin/streptomycin (all from PAA Laboratories GmbH, Cölbe, Germany). Cells were cultured at a density of 3.3×10^5 cells ml^−1 andincubated at 37° C. with 5% CO2 and 95% humidity.
as §1, §2

[1] = test system: lymphoma cell lines (OCI-Ly8 LAM53, SU-DHL-4 and Raji); assay: Viability of lymphoma cell lines in vitro; type: cell-based, human
Description: as §1, §2

[2] = test system: myeloma cells (OPM-2, U266 and RPMI 8226); assay: Viability of myeloma cell lines, mean IC50 over OPM-2, U266 and RPMI 8226; type: cell-based, human
Description: A mean IC50 value in myeloma cells was determined using the mean of the IC50 results determined in OPM-2, U266 and RPMI 8226 cells.

primary myeloma cells = assay: Viability of primary myeloma cells from bone marrow of patients; type: cell-based, human; settings: three days; preliminary data
Description: Bone marrow samples from patients with myeloma were taken after informed consent, single cell suspensions generated and cells ficolled. Cells were incubated with or without EA for three days and measured for viability.
Results represent data from two separate experiments. Data are shown as mean.
Bone marrow samples from patients with myeloma were taken after informed consent, single cell suspensions generated and cells ficolled. Cells were incubated with or without CIC for three days and measured for viability.
Bone marrow samples from patients with myeloma were taken after informed consent, single cell suspensions generated and cells ficolled. Cells were incubated with or without GF for three days and measured for viability.

Daudi lymphoma cells = assay: Cell viability by DiOC6 staining, flow cytometry: Daudi; type: cell-based, human; settings: EA or CIC 30 μM; data not shown
Description: as §3, §1
as §3, with “and incubated” for “andincubated”
as §2

Raji lymphoma cells = assay: Cell viability by DiOC6 staining, flow cytometry: Raji; type: cell-based, human; settings: for viability of Raji cells, single drug or combination: EA or CIC 30 μM, data not shown
Description: as §3, §1, §2

PBMC = assay: Cell viability by DiOC6 staining, flow cytometry: PBMC of healthy individuals; type: cell-based, human
Description: as §1
PBMCs were isolated from blood of healthy donors by Ficoll-Hypaque density gradient centrifugation. Blood from buffy coats was mixed 1:2 with PBS/1% BSA (both PAA, Cölbe, Germany) and used for a ficoll gradient (LymphoPrep, PAA, Cölbe, Germany). After the centrifugation at 800 g for 30 minutes, the leukocyte layer was removed and transferred to new tubes.
as §2

RPMI 8226 myeloma cells = assay: Cell viability by DiOC6 staining, flow cytometry: RPMI 8226; type: cell-based, human; settings: three days; EA or CIC 30 μM; thalidomide 20 μM; lenalidomide 80 μM
Description: as §3, §1, §2

U266 myeloma cells = assay: Cell viability by DiOC6 staining, flow cytometry: U266; type: cell-based, human; settings: three days; EA or CIC 30 μM; thalidomide 160 μM
Description: as §3, §1, §2

primary CLL cells = settings: cited from earlier work
[3] = cited from earlier work
SU-DHL-4 lymphoma cells = assay: Cell viability by DiOC6 staining, flow cytometry: SU-DHL-4; type: cell-based; settings: Homo sapiens, EA 30 μM, after 72 h, read-out: relative viability, SU-DHL-4
Description: as §3, §1, §2

[4] = test system: Wnt/beta catenin signaling; settings: 960 compounds screened; cited from earlier work
[5] = test system: OCI-Ly8 LAM53 lymphoma cells; assay: Cell viability by DiOC6 staining, flow cytometry: OCI-Ly8 LAM53; type: cell-based; settings: Homo sapiens, EA 30 μM, after 72 h, read-out: relative viability, LAM-53
Description: as §3, §1, §2

With Cc1cc(CC(C)CC(C)(C)C)n(O)c(=O)c1 (stereo not shown) [piroctone olamine] as the compound, how does the “animals in which solid tumor nodules formed” value (MPC11 myeloma cells) read?
The value was 5 of 6.

What about the “overall survival compared to control group” value (MPC11 myeloma cells) of the same compound?
The value was “significantly (p<0.05) longer”.

And the “effect on normal PBL” value (PBL)?
Its value is “marginal”.

What about the “mode of cytotoxic activity” value (OPM-2 myeloma cells; 0.1 uM, three days (FIG. 12)) of the same compound?
The value was “induction of apoptosis”.

And the “viability of lymphoma cell lines in vitro” value [1]?
The value was “significantly (p<0.05) decreased the viability”.

What about the “viability of myeloma cell lines in vitro” value [2] of the same compound?
The value was “significantly decreased the viability”.

What about the “growth of primary myeloma cells from bone marrow of patients” value (“growth of primary myeloma cells” for short) (primary myeloma cells) of the same compound?
The value was “inhibits the growth”.

For COc1cccc2c1C(=O)c1c(O)c3c(c(O)c1C2=O)C[C@@](O)(C(=O)CO)C[C@@H]3O[C@H]1C[C@H](N)[C@H](O)[C@H](C)O1 [doxorubicin], which “viability of Daudi cells, single drug or combination” value (Daudi lymphoma cells) is on record?
The value was “significant decrease in viability”.

And the “viability of Raji cells, single drug or combination” value (Raji lymphoma cells)?
The value was “significant decrease in viability”.

Which results are given for Nc1cccc2c1CN(C1CCC(=O)NC1=O)C2=O (racemic) [lenalidomide, (RS)-3-(4-amino-1-oxo-3H-isoindol-2-yl)piperidine-2,6-dione]?
effect on normal PBL (PBL): marginal; viability of OPM-2 cells, single drug or combination (OPM-2 myeloma cells): significant decrease in viability; viability of lymphoma cell lines in vitro [1]: no effect; effect on normal PBMC (PBMC): marginal; viability of RPMI-8226 cells, single drug or combination (RPMI 8226 myeloma cells): significant decrease in viability

With O=C1CCC(N2C(=O)c3ccccc3C2=O)C(=O)N1 (racemic) [thalidomide, (RS)-2-(2,6-dioxopiperidin-3-yl)-1H-isoindole-1,3(2H)-dione] as the compound, how does the “effect on normal PBL” value (PBL) read?
The value was “no effect”.

And the “viability of U-266 cells, single drug or combination” value (U266 myeloma cells)?
Its value is “significant decrease in viability”.

What about the “viability of OPM-2 cells, single drug or combination” value (OPM-2 myeloma cells) of the same compound?
The value was “significant decrease in viability”.

What about the “viability of lymphoma cell lines in vitro” value [1] of the same compound?
Its value is “no effect”.

What about the “effect on normal PBMC” value (PBMC) of the same compound?
Its value is “no effect”.

What about the “viability of RPMI-8226 cells, single drug or combination” value (RPMI 8226 myeloma cells) of the same compound?
The value was “significant decrease in viability”.

With COC1=CC(=O)C[C@@H](C)[C@]12Oc1c(Cl)c(OC)cc(OC)c1C2=O [griseofulvin, (2S,6′R)-7-chloro-2′,4,6-trimethoxy-6′-methyl-3H,4′H-spiro[1-benzofuran-2,1′-cyclohex[2]ene]-3,4′-dione] as the compound, how does the “animals in which solid tumor nodules formed” value (MPC11 myeloma cells) read?
The value was 5 of 6.

And the “overall survival compared to control group” value (MPC11 myeloma cells)?
The value was “significantly (p<0.05) longer”.

And the “viability of lymphoma cell lines in vitro” value [1]?
The value was “significantly (p<0.05) decreased the viability”.

What about the “viability of myeloma cell lines in vitro” value [2] of the same compound?
The value was “significantly decreased the viability”.

What about the “growth of primary myeloma cells” value (primary myeloma cells) of the same compound?
Its value is “inhibits the growth”.

With C=C(CC)C(=O)c1ccc(OCC(=O)O)c(Cl)c1Cl [EA, 2-[2,3-dichloro-4-(2-methylidenebutanoyl)phenoxy]acetic acid] as the compound, how does the “tumor growth compared to mice treated with lenalidomide alone” value (MPC11 myeloma cells; oral 450 μg/day EA, 750 μg lenalidomide/day, p<0.001) read?
Its value is “significantly reduced”.

And the “cell death in primary CLL cells” value (primary CLL cells)?
Its value is “selectively induced cell death”.

And the solubility in water [3]?
Its solubility in water is “slightly solube”.

And the “solubility in most organic solvents” value ([3]; e.g. alcohols, chloroform, and benzene)?
Its value is “soluble”.

What about the “viability of lymphoma cell lines in vitro” value [1] of the same compound?
The value was “significantly (p<0.05) decreased the viability”.

And the viability at 30 µM (SU-DHL-4 lymphoma cells)?
Its viability at 30 µM is 97.6%.

What about the viability at 30 µM (Raji lymphoma cells; Homo sapiens, Raji, EA 30 μM, after 72 h, read-out: relative viability, Raji) of the same compound?
Its viability at 30 µM is 78.9%.

What about the “result of TOPflash reporter screen” value [4] of the same compound?
Its value is “Wnt/beta catenin inhibitors”.

And the viability at 30 µM [5]?
The viability at 30 µM was 91%.

And the “growth of primary myeloma cells” value (primary myeloma cells)?
Its value is “inhibits the growth”.

With CC(C)C[C@H](NC(=O)[C@H](Cc1ccccc1)NC(=O)c1cnccn1)B(O)O [bortezomib] as the compound, how does the “viability of OPM-2 cells, single drug or combination” value (OPM-2 myeloma cells) read?
Its value is “significant decrease in viability”.

Which “viability of Daudi cells, single drug or combination” value (Daudi lymphoma cells) does the source give for rituximab here?
The value was “significantly decreased”.

And the “viability of Raji cells, single drug or combination” value (Raji lymphoma cells)?
Its value is “significantly decreased”.

Which “tumor growth compared to control mice” value (MPC11 myeloma cells; oral 450 μg/day CIC, 750 μg lenalidomide/day) does the source give for Cc1cc(C2CCCCC2)n(O)c(=O)c1 [CIC, ciclopirox olamine] here?
Its value is “significantly reduced”.

What about the “effect on normal PBL” value (PBL) of the same compound?
Its value is “marginal”.

What about the “cell death in primary CLL cells” value (primary CLL cells) of the same compound?
Its value is “selectively induced cell death”.

And the “viability of lymphoma cell lines in vitro” value [1]?
The value was “significantly (p<0.05) decreased the viability”.

What about the “effect on normal PBMC” value (PBMC) of the same compound?
Its value is “marginal”.

And the “result of TOPflash reporter screen” value [4]?
The value was “Wnt/beta catenin inhibitors”.

And the “growth of primary myeloma cells” value (primary myeloma cells)?
Its value is “inhibits the growth”.

Which solubility in methanol [3] does the source give for Cc1cc(C2CCCCC2)n(O)c(=O)c1 [Ciclopirox, 6-cyclohexyl-1-hydroxy-4-methyl-1,2-dihydropyridin-2-one] here?
Its solubility in methanol is “soluble”.
